Like-named read-outs stand apart in the source and are kept apart here.
What was measured:
[1] = tested on: TERC 3′ end processing in DC patient iPSCs; assay: TERC 3′ end processing by RACE in DC patient / PARN-mutant iPSCs; type: cell-based, human; conditions: Homo sapiens, iPSC; patient iPSCs; concentration class at which activity is seen; read-out: iPSC-based RACE activity
Procedure: Compound 266A had activity ˜2-logs higher in the in vitro RNA oligoadenylation assay compared to the parental compound cmpd. 1, approximating the activity of RG7834 (FIG. 7). […] 1. Compounds 295A and 296A had activity 2-3 logs higher in DC patient iPSCs, showing TERC maturation at 1 nM, similar to RG7834 (FIG. 6). […] Referring to Table 1D, “+” refers to activity at 1 μM, “++” refers to activity above 1 nM and below 1 μM, and “+++” refers to activity at <1 nM, “ND” refers to not determined.

[2] = biological target: T1, rPAPD5 (Homo sapiens, UniProt Q8NDF8); assay: differential scanning fluorimetry (DSF) binding and stabilization of rPAPD5; conditions: for ΔTm at 1 µM: 1 μM test compound (Table 2a), read-out: ΔTm at 1 μM; for ΔTm at 100 µM: 100 μM test compound, read-out: ΔTm at 100 μM
T1 construct: made in house
Procedure, shortened: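 Differential scanning fluorimetry was used to measure how test compounds bind and thermally stabilize rPAPD5. The reaction contained SYPRO orange dye diluted 1:5000 in […] of buffer with […], 25 mM Tris-HCl, 5 mM MgCl2 and 50 mM KCl. ΔTm was calculated relative to a DMSO control.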

[3] = 10 μM test compound (Table 2a), read-out: ΔTm at 10 μM
[4] = 10 μM test compound, shift vs DMSO control, read-out: ΔTm (Table 2, starred: the compound was tested at 10 μM)

T1 sequence (Q8NDF8 68-698 isoform Q8NDF8-5 limits assumed): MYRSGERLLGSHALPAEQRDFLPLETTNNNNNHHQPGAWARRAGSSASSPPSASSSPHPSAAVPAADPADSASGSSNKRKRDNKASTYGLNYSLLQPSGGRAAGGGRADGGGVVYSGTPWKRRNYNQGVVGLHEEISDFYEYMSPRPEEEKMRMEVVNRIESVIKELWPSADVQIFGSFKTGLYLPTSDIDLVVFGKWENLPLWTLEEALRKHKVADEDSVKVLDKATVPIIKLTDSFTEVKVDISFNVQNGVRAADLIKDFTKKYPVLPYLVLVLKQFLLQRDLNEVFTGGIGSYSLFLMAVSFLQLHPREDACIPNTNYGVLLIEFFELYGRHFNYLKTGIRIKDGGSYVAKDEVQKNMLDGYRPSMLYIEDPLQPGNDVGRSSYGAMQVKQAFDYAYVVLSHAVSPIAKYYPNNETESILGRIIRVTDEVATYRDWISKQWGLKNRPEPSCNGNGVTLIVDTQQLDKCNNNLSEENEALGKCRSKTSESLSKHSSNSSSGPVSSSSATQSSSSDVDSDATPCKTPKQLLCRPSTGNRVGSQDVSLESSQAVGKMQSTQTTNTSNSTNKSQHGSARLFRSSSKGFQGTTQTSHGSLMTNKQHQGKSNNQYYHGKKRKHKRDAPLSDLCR

| SMILES | ΔTm at 100 µM ([2]; shift vs DMSO control) [°C] | also measured |
| --- | --- | --- |
| O=C(O)c1cc(Cl)ccc1Nc1c(N2CCC(OC(F)(F)F)CC2)cnc2ccc(Cl)cc12 [Compound 394A, 5-chloro-2-[[6-chloro-3-[4-(trifluoromethoxy)-1-piperidyl]-4-quinolyl]amino]benzoic acid] | – | minimal effective concentration [1]: < 0.001 µM; ΔTm at 1 µM [2]: > 5 °C; ΔTm at 10 µM [2, 3]: > 5 °C; ΔTm at 10 µM [2, 4]: > 5 °C |
| O=C(O)c1cc(Cl)ccc1Nc1c(C2=CCNCC2)cnc2ccc(Cl)cc12 [Compound 368A, 5-chloro-2-[[6-chloro-3-(1,2,3,6-tetrahydropyridin-4-yl)-4-quinolyl]amino]benzoic acid] | > 5 | minimal effective concentration [1]: 1 µM; ΔTm at 1 µM [2]: > 5 °C; ΔTm at 10 µM [2, 3]: > 5 °C |
| O=C(O)c1cc(Cl)ccc1Nc1c(C2=CCOC2)cnc2ccc(Cl)cc12 [Compound 401A, 5-chloro-2-[[6-chloro-3-(2,5-dihydrofuran-3-yl)-4-quinolyl]amino]benzoic acid] | > 5 | minimal effective concentration [1]: 1 µM; ΔTm at 1 µM [2]: > 5 °C; ΔTm at 10 µM [2, 3]: > 5 °C |
| O=C(O)c1cc(Cl)ccc1Nc1c(S(=O)(=O)N2CCSCC2)cnc2cc(F)c(Cl)cc12 [Compound 415A, 5-chloro-2-[(6-chloro-7-fluoro-3-thiomorpholinosulfonyl-4-quinolyl)amino]benzoic acid] | > 5 | minimal effective concentration [1]: 1 µM; ΔTm at 1 µM [2]: > 5 °C; ΔTm at 10 µM [2, 3]: > 5 °C |
| Cc1cc(Nc2c(S(=O)(=O)N3CCSCC3)cnc3ccc(Cl)cc23)c(C(=O)O)cc1Cl [Compound 426A, 5-chloro-2-[(6-chloro-3-thiomorpholinosulfonyl-4-quinolyl)amino]-4-methyl-benzoic acid] | – | minimal effective concentration [1]: 1 µM; ΔTm at 1 µM [2]: 1 to 5 °C; ΔTm at 10 µM [2, 3]: > 5 °C; ΔTm at 10 µM [2, 4]: > 5 °C |
| O=C(O)c1ccccc1Nc1c(NC2CCOCC2)cnc2ccc(Cl)cc12 [Compound 184A, 2-[[6-chloro-3-(tetrahydropyran-4-ylamino)-4-quinolyl]amino]benzoic acid] | > 5 | – |
| N#Cc1csc(-c2ccc3ncc(S(=O)(=O)N4CCOCC4)c(Nc4ccccc4C(=O)O)c3c2)c1 [Compound 139A] | 1 to 5 | – |
| COC(=O)c1ccccc1Nc1c(S(=O)(=O)N2CCOCC2)cnc2ccc(Cl)cc12 [Compound 124A] | 1 to 5 | – |
| O=C(O)c1cccc(Cl)c1Nc1c(S(=O)(=O)N2CCOCC2)cnc2ccc(Cl)cc12 [Compound 280A, 3-chloro-2-[(6-chloro-3-morpholinosulfonyl-4-quinolyl)amino]benzoic acid] | > 5 | – |
| O=C(O)c1ccccc1Nc1c(S(=O)(=O)N2CCS(=O)(=O)CC2)cnc2ccc(Cl)cc12 [Compound 220A, 2-[[6-chloro-3-[(1,1-dioxo-1,4-thiazinan-4-yl)sulfonyl]-4-quinolyl]amino]benzoic acid] | > 5 | – |
| CN(C)c1cncc(-c2ccc3ncc(S(=O)(=O)N4CCOCC4)c(Nc4ccccc4C(=O)O)c3c2)c1 [Compound 152A, 2-[[6-[5-(dimethylamino)-3-pyridyl]-3-morpholinosulfonyl-4-quinolyl]amino]benzoic acid] | 1 to 5 | – |
| O=C(O)c1cc(Cl)ccc1Nc1c(-c2nnn[nH]2)cnc2ccc(Cl)cc12 [Compound 359A, 5-chloro-2-[[6-chloro-3-(1H-tetrazol-5-yl)-4-quinolyl]amino]benzoic acid] | > 5 | ΔTm at 1 µM [2]: > 5 °C; ΔTm at 10 µM [2, 3]: > 5 °C |
| CC(=O)NS(=O)(=O)c1ccc2ncc(S(=O)(=O)N3CCOCC3)c(Nc3ccccc3C(=O)O)c2c1 [Compound 235A, 2-[[6-(acetylsulfamoyl)-3-morpholinosulfonyl-4-quinolyl]amino]benzoic acid] | 1 to 5 | – |
| O=C(O)c1ccccc1Nc1c(C2=CCSCC2)cnc2ccc(Cl)cc12 [Compound 299A, 2-[[6-chloro-3-(3,6-dihydro-2H-thiopyran-4-yl)-4-quinolyl]amino]benzoic acid] | > 5 | – |
| O=C(O)c1ccccc1Nc1c(S(=O)(=O)N2CCOCC2)cnc2ccc(-c3c[nH]c4ncc(C(F)(F)F)cc34)cc12 [Compound 147A] | > 5 | – |
| O=C(O)c1c(Nc2c(S(=O)(=O)N3CCOCC3)cnc3ccc(Cl)cc23)cccc1-c1ncco1 [Compound 261A, 2-[(6-chloro-3-morpholinosulfonyl-4-quinolyl)amino]-6-oxazol-2-yl-benzoic acid] | < 1 | – |
| O=C(O)c1cccc(C(F)(F)F)c1Nc1c(S(=O)(=O)N2CCOCC2)cnc2ccc(Cl)cc12 [Compound 285A, 2-[(6-chloro-3-morpholinosulfonyl-4-quinolyl)amino]-3-(trifluoromethyl)benzoic acid] | < 1 | – |
| O=C(O)c1ccccc1Nc1c(-c2cnoc2)cnc2ccc(Cl)cc12 [Compound 212A, 2-[(6-chloro-3-isoxazol-4-yl-4-quinolyl)amino]benzoic acid] | 1 to 5 | – |
| O=C(O)c1cc(F)ccc1Nc1c(-c2ncco2)cnc2ccc(Cl)cc12 [Compound 300A, 2-[(6-chloro-3-oxazol-2-yl-4-quinolyl)amino]-5-fluoro-benzoic acid] | > 5 | – |
| O=C(O)c1ccccc1Nc1c(S(=O)(=O)N2CCOCC2)cnc2ccc(-c3ccnc4[nH]ccc34)cc12 [Compound 159A, 2-[[3-morpholinosulfonyl-6-(1H-pyrrolo[2,3-b]pyridin-4-yl)-4-quinolyl]amino]benzoic acid] | > 5 | – |
| Cc1c[nH]c2ncc(-c3ccc4ncc(S(=O)(=O)N5CCOCC5)c(Nc5ccccc5C(=O)O)c4c3)cc12 [Compound 156A, 2-[[6-(3-methyl-TH-pyrrolo[2,3-b]pyridin-5-yl)-3-morpholinosulfonyl-4-quinolyl]amino]benzoic acid] | > 5 | – |
| O=C(O)c1ccccc1Nc1c(S(=O)(=O)N2CC3(COC3)C2)cnc2ccc(Cl)cc12 [Compound 135A] | > 5 | – |
| O=C(O)c1ccccc1Nc1c(S(=O)(=O)N2CCOCC2)cnc2ccc(-c3cc[nH]n3)cc12 [Compound 137A] | 1 to 5 | – |
| CN1CCC(c2cnc3ccc(Cl)cc3c2Nc2ccccc2C(=O)O)CC1 [Compound 207A, 2-[[6-chloro-3-(1-methyl-4-piperidyl)-4-quinolyl]amino]benzoic acid] | > 5 | – |
| COCCn1cc(-c2ccc3ncc(S(=O)(=O)N4CCOCC4)c(Nc4ccccc4C(=O)O)c3c2)cn1 [Compound 145A] | > 5 | – |
| O=C(O)c1ccccc1Nc1c(C2CCNCC2)cnc2ccc(Cl)cc12 [Compound 206A, 2-[[6-chloro-3-(4-piperidyl)-4-quinolyl]amino]benzoic acid] | > 5 | – |
| O=C(O)c1ccccc1Nc1c(S(=O)(=O)N2CC(CO)(CCl)C2)cnc2ccc(Cl)cc12 [Compound 135A-BP] | > 5 | – |
| O=C(O)c1ccccc1Nc1c(S(=O)(=O)N2CCOCC2)cnc2ccc(-c3cn(S(=O)(=O)c4ccccc4)c4ncccc34)cc12 [Compound 144A] | > 5 | – |
| O=C(O)c1ccccc1Nc1c(S(=O)(=O)N2CCOCC2)cnc2ccc(-c3ccc(Oc4ccccc4)nc3)cc12 [Compound 162A, 2-[[3-morpholinosulfonyl-6-(6-phenoxy-3-pyridyl)-4-quinolyl]amino]benzoic acid] | 1 to 5 | – |
| O=C(O)c1ccccc1Nc1c(S(=O)(=O)N2CCOCC2)cnc2ccc(-c3cnccc3C(F)(F)F)cc12 [Compound 168A, 2-[[3-morpholinosulfonyl-6-[4-(trifluoromethyl)-3-pyridyl]-4-quinolyl]amino]benzoic acid] | 1 to 5 | – |

— patent US20250026769A1, “PAPD5 INHIBITORS AND METHODS OF USE THEREOF” (The Children's Medical Center Corporation, priority 2021, published 2025)
